Data as given in US20020103377A1, “Piperidinyloxy and pyrrolidinyloxy oxazolidinone antibacterials” (priority 1999, published 2002).
≈ marks a conversion by molar mass, not a printed value.

Columns and labels:
E. faecium OC3312 = assay: MIC by microdilution broth method (NCCLS), E. faecium OC3312; assay type: cell-based; details: Enterococcus faecium, OC3312, microdilution broth, cation adjusted Mueller-Hinton broth, 35° C., 16-20 hours; read-out: MIC (μg/mL) E. faecium OC3312
Description: (§1) Minimal inhibitory concentration (MIC) has been an indicator of in vitro antibacterial activity widely used in the art. The in vitro antimicrobial activity of the compounds was determined by the microdilution broth method following the test method from the National Committee for Laboratory Standards (NCCLS). This method is described in the NCCLS Document M7-A4, Vol. 17, No.2, “Methods for Dilution Antimicrobial Susceptibility Test for Bacteria that Grow Aerobically-Fourth Edition”, which is incorporated herein by reference.
(§2) In this method two-fold serial dilutions of drug in cation adjusted Mueller-Hinton broth are added to wells in microdilution trays. The test organisms are prepared by adjusting the turbidity of actively growing broth cultures so that the final concentration of test organism after it is added to the wells is approximately 5×10^4 CFU/well.
(§3) Following inoculation of the microdilution trays, the trays are incubated at 35° C. for 16-20 hours and then read. […] The amount of growth in the wells containing the test compound is compared with the amount of growth in the growth-control wells (no test compound) used in each tray. As set forth in Table 1, compounds of the present invention were tested against a variety of Gram positive and Gram negative pathogenic bacteria resulting in a range of activities, from 1 to ≧128 μg/mL depending on the organism tested.

MRSA OC 2878 = assay: MIC by microdilution broth method (NCCLS), MRSA OC 2878; assay type: cell-based, Staphylococcus aureus; details: Staphylococcus aureus, MRSA, cation adjusted Mueller-Hinton broth, 35° C., 16-20 hours, read-out: MIC (μg/mL) MRSA OC 2878
Description: as §1, §2, §3

S. aureus = assay: MIC by microdilution broth method (NCCLS), S. aureus Broth; assay type: cell-based; details: Staphylococcus aureus, cation adjusted Mueller-Hinton broth, 35° C., 16-20 hours, read-out: MIC (μg/mL) S. aureus Broth
Description: as §1, §2, §3

Row | MIC (E. faecium OC3312) [µg/mL] | melting point [°C] | MIC (MRSA OC 2878) [µg/mL] | MIC (S. aureus) [µg/mL] | Compound
1 | 16 (≈ 34.9 µM) | 132 to 134 | 4 (≈ 8.72 µM) | 16 (≈ 34.9 µM) | CC(=O)NC[C@H]1CN(c2ccc(OC3CCN(S(=O)(=O)N(C)C)CC3)c(F)c2)C(=O)O1 [Compound 23, (S)-N-[[3-[3-Fluoro-4-{N-(dimethylsulfamoyl)piperidinyl-4-oxy}phenyl]-2-oxo-5-oxazolidinyl]methyl]acetamide]
2 | 16 (≈ 40.5 µM) | 97 to 99 | 8 (≈ 20.2 µM) | 4 (≈ 10.1 µM) | CC(=O)NC[C@H]1CN(c2ccc(OC3CCN(C(=O)CO)C3)c(F)c2)C(=O)O1 (stereo partly drawn) [Compound 40, (S)-N-[[3-[3-Fluoro-4-{N-(α-hydroxyacetyl)pyrrolidinyl-3-oxy}phenyl]-2-oxo-5-oxazolidinyl]methyl]acetamide]
3 | 16 (≈ 33.3 µM) | 82 to 85 | 8 (≈ 16.6 µM) | 8 (≈ 16.6 µM) | CC(=O)NC[C@H]1CN(c2ccc(OC3CCN(C(=O)c4cccc(C#N)c4)CC3)c(F)c2)C(=O)O1 [Compound 12, (S)-N-[[3-[3-Fluoro-4-{N-(3-cyanobenzoyl)piperidinyl-4-oxy}phenyl]-2-oxo-5-oxazolidinyl]methyl]acetamide]
4 | 32 (≈ 74.5 µM) | 130 to 131 | 8 (≈ 18.6 µM) | 16 (≈ 37.3 µM) | CC(=O)NC[C@H]1CN(c2ccc(OC3CCCN(c4ncccn4)C3)c(F)c2)C(=O)O1 (stereo partly drawn) [Compound 38, (S)-N-[[3-[3-Fluoro-4-{N-(2-pyrimidinyl)piperidinyl-3-oxy}phenyl]-2-oxo-5-oxazolidinyl]methyl]acetamide]
5 | 8 (≈ 18 µM) | 134 to 136 | 8 (≈ 18 µM) | 16 (≈ 35.9 µM) | CC(=O)NC[C@H]1CN(c2ccc(OC3CCN(C(=O)c4ccco4)CC3)c(F)c2)C(=O)O1 [Compound 51, (S)-N-[[3-[3-Fluoro-4-{N-(2-furoyl)piperdinyl-4-oxy}phenyl]-2-oxo-5-oxazolidinyl]methyl]acetamide]
6 | 32 (≈ 61.1 µM) | 150 to 152 | 16 (≈ 30.6 µM) | 16 (≈ 30.6 µM) | CC(=O)NC[C@H]1CN(c2ccc(OC3CCN(C(=O)c4cccc(C(F)(F)F)c4)CC3)c(F)c2)C(=O)O1 [Compound 10, (S)-N-[[3-[3-Fluoro-4-{N-(3-trifluoromethylbenzoyl)piperidinyl-4-oxy}phenyl]-2-oxo-5-oxazolidinyl]methyl]acetamide]
7 | 16 (≈ 33.3 µM) | 75 to 78 | 8 (≈ 16.6 µM) | 16 (≈ 33.3 µM) | CC(=O)NC[C@H]1CN(c2ccc(OC3CCN(C(=O)c4ccc(C#N)cc4)CC3)c(F)c2)C(=O)O1 [Compound 11, (S)-N-[[3-[3-Fluoro-4-{N-(4-cyanobenzoyl)piperidinyl-4-oxy}phenyl]-2-oxo-5-oxazolidinyl]methyl]acetamide]
8 | 4 (≈ 8.48 µM) | 119 to 121 | 4 (≈ 8.48 µM) | 8 (≈ 17 µM) | CC(=O)NC[C@H]1CN(c2ccc(OC3CN(C(=O)COCc4ccccc4)C3)c(F)c2)C(=O)O1 [Compound 58, (S)-N-[[3-[3-Fluoro-4-{N-(benzyloxyacetyl)azetidinyl-3-oxy}phenyl]-2-oxo-5-oxazolidinyl]methyl]acetamide]
9 | 32 (≈ 70.1 µM) | 49 to 53 | 32 (≈ 70.1 µM) | 16 (≈ 35.1 µM) | CC(=O)NC[C@H]1CN(c2ccc(OC3CCN(C(=O)c4cccnc4)CC3)c(F)c2)C(=O)O1 [Compound 19, (S)-N-[[3-[3-Fluoro-4-{N-(3-pyridoyl)piperidinyl-4-oxy}phenyl]-2-oxo-5-oxazolidinyl]methyl]acetamide]
10 | 8 (≈ 22.8 µM) | 55 to 59 | 32 (≈ 91.1 µM) | 8 (≈ 22.8 µM) | CC(=O)NC[C@H]1CN(c2ccc(OC3CCNCC3)c(F)c2)C(=O)O1 [Compound 2, (S)-N-[[3-[3-Fluoro-4-{piperidinyl-4-oxy}phenyl]-2-oxo-5-oxazolidinyl]methyl]acetamide]
11 | 16 (≈ 32.1 µM) | 42 to 45 | 8 (≈ 16 µM) | 16 (≈ 32.1 µM) | CC(=O)NC[C@H]1CN(c2ccc(OC3CCN(C(=O)CCCc4cccnc4)CC3)c(F)c2)C(=O)O1 [Compound 26, (S)-N-[[3-[3-Fluoro-4-{N-(4-pyridin-3-yl-butyryl)piperidinyl-4-oxy}phenyl]-2-oxo-5-oxazolidinyl]methyl]acetamide]
12 | 8 (≈ 18.6 µM) | 123 to 125 | 4 (≈ 9.31 µM) | 4 (≈ 9.31 µM) | CC(=O)NC[C@H]1CN(c2ccc(OC3CCN(S(C)(=O)=O)CC3)c(F)c2)C(=O)O1 [Compound 6, (S)-N-[[3-[3-Fluoro-4-{N-(methanesulfonyl)piperidinyl-4-oxy}phenyl]-2-oxo-5-oxazolidinyl]methyl]acetamide]
13 | > 128 | 180 to 182 | 64 (≈ 146 µM) | 64 (≈ 146 µM) | CC(=O)NC[C@H]1CN(c2ccc(OC3CCN(C(=O)c4ccccc4)CC3)nc2)C(=O)O1 [Compound 46, (5S)-3-[6-{N-(Benzoyl)piperidinyl-4-oxy}-pyridin-3-yl]-5-methylacetamide-oxazolidin-2-one]
14 | 8 (≈ 18.6 µM) | 121 to 123 | 4 (≈ 9.31 µM) | 4 (≈ 9.31 µM) | CC(=O)NC[C@H]1CN(c2ccc(OC3CCN(c4ncccn4)CC3)c(F)c2)C(=O)O1 [Compound 9, (S)-N-[[3-[3-Fluoro-4-{N-(2-pyrimidinyl)piperidinyl-4-oxy}phenyl]-2-oxo-5-oxazolidinyl]methyl]acetamide]
15 | 8 (≈ 17.3 µM) | 48 to 51 | 4 (≈ 8.67 µM) | 8 (≈ 17.3 µM) | CC(=O)NC[C@H]1CN(c2ccc(OC3CCN(C(=O)c4cccs4)CC3)c(F)c2)C(=O)O1 [Compound 22, (S)-N-[[3-[3-Fluoro-4-{N-(2-thienylcarbonyl)piperidinyl-4-oxy}phenyl]-2-oxo-5-oxazolidinyl]methyl]acetamide]
16 | 16 (≈ 33 µM) | 53 to 55 | 16 (≈ 33 µM) | 16 (≈ 33 µM) | CC(=O)NC[C@H]1CN(c2ccc(OC3CCN(C(=O)COCc4ccccc4)C3)c(F)c2)C(=O)O1 (stereo partly drawn) [Compound 39, (S)-N-[[3-[3-Fluoro-4-{N-(benzyloxyacetyl)pyrrolidinyl-3-oxy}phenyl]-2-oxo-5-oxazolidinyl]methyl]acetamide]
17 | 128 (≈ 336 µM) | 158 to 160 | 64 (≈ 168 µM) | 32 (≈ 83.9 µM) | CC(=O)NC[C@H]1CN(c2ccc(OC3CN(C(=O)CO)C3)c(F)c2)C(=O)O1 [Compound 61, (S)-N-[[3-[3-Fluoro-4-{N-(α-hydroxyacetyl)azetidinyl-3-oxy}phenyl]-2-oxo-5-oxazolidinyl]methyl]acetamide]

Row | Compound | MIC (E. faecium OC3312) [µg/mL] | melting point [°C] | MIC (MRSA OC 2878) [µg/mL] | MIC (S. aureus) [µg/mL]
18 | CC(=O)NC[C@H]1CN(c2ccc(OC3CCN(C(=O)OC(C)(C)C)CC3)nc2)C(=O)O1 [Compound 41, (5S)-3-[6-{N-(t-Butoxycarbonyl)piperidinyl-4-oxy}-pyridin-3-yl]-5-methylacetamide-oxazolidin-2-one] | > 128 | 99 to 101 | 64 (≈ 147 µM) | 128 (≈ 295 µM)
19 | CC(=O)NC[C@H]1CN(c2ccc(OC3CCCN(C(=O)OC(C)(C)C)C3)c(F)c2)C(=O)O1 (stereo partly drawn) [Compound 34, (S)-N-[[3-[3-Fluoro-4-{N-(t-butoxycarbonyl)piperidinyl-3-oxy}phenyl]-2-oxo-5-oxazolidinyl]methyl]acetamide] | > 128 | 60 to 63 | 64 (≈ 142 µM) | 128 (≈ 284 µM)
